How the values of series [1] were obtained: Hexanes and an excess of trimethylaluminum were removed under vacuum.
A mixture of [CPh3][(CH3)3NB12F11] […] A mixture was stirred under a nitrogen atmosphere for 20 h.
The orange microcrystalline compound (CPh3)2B12F12 (0.195 g, 0.231 mmol) was treated with 2 ml of toluene solution of AlMe3 (0.161 g, 2.240 mmol). […] The mixture was stirred for additional 40 hours.

Series [2] in a line: Stability in solution and on storage. In kind it is physicochemical. Here is the method: where R^1, R^2, Q, M^1, m, n, and q are those defined above. […] In addition, unlike many other aluminum metal catalysts, Compound of Formula IA has a relatively high solubility in aliphatic hydrocarbon solvents. For example, the compound AlMe2(1-Dd-CB11F11), where Dd is dodecyl, is soluble in hexanes and methylcyclohexane and stable for at least 10 days at 25° C.
A suspension of CPh3(1-Et-CB11F11) (0.412 g, 0.67 mmol) in pentane (40 ml) was treated with a solution of Si(i-Pr)3H (0.215 g, 1.36 mmol, 2 equiv.) in pentane (10 ml) for 20 hours at room temperature. The mixture was treated with more Si(i-Pr)3H (0.56 g, 3.54 mmol) for another 20 hours. (Note, that a large excess of Si(i-Pr)3H (˜7 equiv.) required for the reaction to go to completion. A slightly pink pentane solution was filtered from a small amount of red-brown oily solid (˜20 mg, which upon dissolving of in acetonitile was identified as a mixture of CPh3(1-Et-CB11F11) and [Si(i-Pr)3(CD3CN)][1-Et-CB11F11]. The volume of the pentane solution was reduced to ˜5 ml, which caused the formation of white solid. The solid was separated by filtration, washed three times with 1 ml of pentane and dried under nitrogen atmosphere inside the glove box. The yield of Si(i-Pr)3(1-Et-CB11F11) as an off-white crystalline solid was 0.198 g (56%). […]

Series [3] is described as follows: Polymerization of ethylene in hexanes. Conditions: hexanes solution, 24° C., 703 torr ethylene, 18 h. Here is the method: A suspension of [CPh3][1-C12H25-CB11F11] (5.0 mg) in 0.5 ml of methylcyclohexane-d14 was treated with 0.5 ml of methylcyclohexane-d14 solution of Al(CH3)3 (2.2 mg) for 20 h. […] The filtrate was diluted with 7 ml of hexanes and transferred into a 50 ml Kontes tube. The solution was treated with 703 torr of ethylene for 18 h at 24° C. and small amount of white solid was formed. The mixture was treated with 3 ml of methanol for 20 minutes. A solid polyethylene was collected (3 mg) by filtration and characterized by DSC (Tm=126° C.).

Series [4] in a line: Polymerization of ethylene with one equivalent of Cp2ZrMe2. Conditions: with Cp2ZrMe2, hexanes, 660 torr ethylene, from ethylene pressure decrease. As to the method:
A suspension of [CPh3][1-C12H25-CB11F11] (5.0 mg) in 0.5 ml of methylcyclohexane-d14 was treated with 0.5 ml of methylcyclohexane-d14 solution of Al(CH3)3 (2.2 mg) for 20 h. […] The filtrate was diluted with 7 ml of hexanes and transferred into a 50 ml Kontes tube. The solution was treated with 1 ml of hexanes solution of Cp2ZrMe2 (1.3 mg). The mixture was treated with 660 torr of ethylene. The ethylene pressure was decreased to 470 torr within 5 minutes due to the formation of polyethylene (white solid). More ethylene (812 torr) was added to the mixture and the ethylene pressure was decreased to 295 torr within the next 2 hours. The mixture was quenched with 5 ml of methanol and stirred for 20 minutes. A solid polyethylene was collected (210 mg) by filtration and characterized by DSC (Tm=129° C.). The catalytic activity during the first 5 minutes (good agitation) was calculated based on the ethylene pressure decrease and was at least 150 kg PE/mol Zr·h·atm.

A short description of series [5]: Zirconocene catalyzed selective dimerization of 1-hexene. The note with it: for turnovers number within the first five minutes: co-catalyst with Cp2ZrMe2, first five minutes. As to the method:
A solution of Al(CH3)2(1-[…]-CB11F11) (6.1 mg, 10.8 μmol) in 0.28 ml of methylcyclohexane was treated with a solution of Cp2ZrMe2 (2.3 mg, 9.1 μmol) in 1-hexene (3.654 g). The resulted mixture was stirred under a nitrogen atmosphere and the samples were taken from the reaction mixture after 5 minutes and 55 minutes. According to ^1H NMR spectra of the reaction mixtures approximately 33% of 1-hexene were reacted within 5 minutes, and approximately 99% of 1-hexene were reacted within 55 minutes. The reaction was exothermic as indicated by the significant self-heating of the reaction mixture during the reaction. The reaction products were analyzed by ^1H, ^13C NMR and GC-MS. According to the analysis the reaction mixture contained 83% of 1-hexene dimerization products (more than 95% of 2-butyl-1-octene) and 17% of 1-hexene isomerization products (the distribution of hexene isomers was as follows: E-2 hexene-56%, Z-2 hexene-26%, E-3 hexene-15%, and Z-3 hexene-3%). The total turnovers number of the activated zirconocene catalyst was calculated to be 4780 (87 TON·min^−1). The turnovers number within the first five minutes of the reaction was approximately 315 TON·min^−1

Series [6] in a line: Arene-olefin coupling of toluene-d8 with ethylene. Conditions: toluene-d8, 656 torr ethylene, 14.5 hours, 24° C. As to the method:
Compounds of Formula IA are useful in a variety of organic reactions including in an arene-olefin coupling reaction. Thus, when the above reaction was repeated under one atmosphere of ethylene (CH2═CH2), a GC-MS analysis of the reaction mixture after 14.5 hr at 24° C. indicated the catalytic formation of all three positional isomers (i.e., the ortho (47%), meta (35%), and para (18%) isomers) of C6D4(CD3)(CH2CH2D) (the number of turnovers in this particular experiment was approximately 60-70. Without being bound any theory, the proposed catalytic scheme, which includes the catalytic activation of aromatic C—H bonds and the catalytic insertion of ethylene into an aluminum-aryl bond, is shown in FIG. 1 in a generic scheme using C6H6 as the substrate instead of C6D5CD3 for simplicity (the coordinated fluorocarborate anion (i.e., Q moiety) has also been omitted from the scheme for simplicity). It should be appreciated that the AlPh2^+1 species shown in FIG. 1 may in fact be a mixture of AlPh2^+1 and AlMePh^+1 species.
A compound Al(CH3)2(1-CH3-CB11F11) (2 mg) was dissolved in 1 ml of toluene-d8 and transferred into a sealable NMR tube. The solution was degassed under vacuum and treated with 656 torr of ethylene for 14.5 hours at 24° C. Proton NMR spectrum of the solution indicated the formation of ethyltoluene. […]

Series [7] is described as follows: Alkylation of benzene with 1-hexene. Conditions: benzene + 1-hexene, 25 hours. Here is the method: A mixture of Al(CH3)2(1-CH3-CB11F11) (2.5 mg, 4.4 μmol), benzene (0.964 g, 12.4 mmol) and 1-hexene (0.224 g, 2.7 mmol) was stirred for 25 hours under a nitrogen atmosphere. […] A GC-MS analysis of the reaction mixture indicated the formation of monohexylbenzenes (29%), dihexylbenzenes (20%) and trihexylbenzenes (51%). The relative amounts of 2-phenylhexane and 3-phenylhexane were 70% and 30%, respectively. Total turnovers number of aluminum alkyl catalyst was calculated to be approximately 606 (24 TON/h).

The conditions of series [8]: cited from earlier work.
The conditions of series [9]: cited from earlier work. This is another data set of the same source.
The conditions of series [10]: similar transformation, comparison value; cited from earlier work.

Here are results for 6 substances from US6645903B2, “Fluoroborane salts comprising a reactive cation and uses thereof” (Colorado State University Research Foundation, priority 2000, dated 2003).

With (AlMe2)2B12F12, in [1], the “solubility in acetonitrile-d3” value was “dissolved” and the “solubility in toluene” value is “not soluble”.
On to Al(CH3)2(1-C12H25-CB11F11), for which the stable in solution entry in series [2] (hexanes and methylcyclohexane, 25° C.) is listed as “at least 10 days”. For the same substance, the “activity for polymerization of ethylene” value in series [3] is given as “approximately 33 g PE/mol Al·h·at”. In addition, the “catalytic activity during the first 5 minutes” value in series [4] was “at least 150 kg PE/mol Zr·h·atm”. In series [5] (co-catalyst with Cp2ZrMe2, 1-hexene, 55 minutes), the “total turnovers number of the activated zirconocene catalyst” value stood at 4780. In addition, in [5] (co-catalyst with Cp2ZrMe2, 55 minutes), the “turnover rate over whole reaction” value is listed as 87 TON·min^−1. The “turnovers number within the first five minutes” value in [5] is given as 315 TON·min^−1; in series [5] (listed as Al(CH3)2(1-C2H25-CB11F11)) it was “approximately 315 TON·min^−1”. The 1-hexene reacted result in [5] (within 5 minutes) is on record as “approximately 33%”; in [5] (within 55 minutes), “approximately 99%”.
As for Al(CH3)2(1-CH3-CB11F11), the “number of turnovers (TON), formation of ethyltoluene” value in series [6] is “approximately 66”. Besides, the “number of turnovers (TON), formation of ethyltoluene” value in series [6] (listed as AlMe2(1-Me-CB11F11)) is reported as 60-70. For the same substance, in series [7], the “total turnovers number of aluminum alkyl catalyst” value was “approximately 606” and the turnover rate is recorded as 24 TON/h.
For the substance Al(CH3)2((CH3)3NB12F11), in series [1], the “solubility in acetonitrile-d3” value is “completely dissolved” and the “solubility in toluene” value is “not soluble”.
As for Si(i-Pr)3(1-Et-CB11F11), the “sensitivity to traces of water” value in series [2] (solid, storage under nitrogen) is given as “extremely sensitive”.
Consider methylalurnoxane [MAO], for which, in [8], the “solubility in aliphatic hydrocarbon solvents” value is on record as “limited solubilities”. Further, in series [9], the “stability when stored in solution” value is “not stable”. In addition, in series [10], the “activity, conventional co-catalyst” value is reported as 30 TON ·min^−1 and the “total turnovers number of the catalyst, conventional co-catalyst” value is listed as 500.
